Data from patent publication US20150258059A1, “ANTIMICROBIAL AND RADIOPROTECTIVE COMPOUNDS” (BioDiem, Ltd, priority 2001, published 2015).

Legend:
Assay type in all cases: cell-based
[1] = system: Yersinia pseudotuberculosis; conditions: Compound (1) 1.0%; antibiotics disc method
[2] = system: Enterobacter aerogenes B-687; assay: Sensitivity of strains: suppression of growth; conditions: Compound (1) 1.0%; antibiotics disc method
Acinetobacter B-676 = assay: Sensitivity of strains: suppression of growth; conditions: Compound (1) 1.0%; antibiotics disc method
[3] = system: β-hemolytic streptococcus B-624; assay: Sensitivity of strains: suppression of growth; conditions: Compound (1) 1.0%; antibiotics disc method
Escherichia coli M-17 = assay: Sensitivity of strains: suppression of growth; conditions: Compound (1) 1.0%; antibiotics disc method
[4] = system: Staphylococci epidermidis D-513; assay: Sensitivity of strains: suppression of growth; conditions: Compound (1) 1.0%; antibiotics disc method
[5] = system: Enterobacter aerogenes B-679; assay: Sensitivity of strains: suppression of growth; conditions: Compound (1) 1.0%; antibiotics disc method
[6] = system: Staphylococcus aureus M-12159; assay: Sensitivity of strains: suppression of growth; conditions: Compound (1) 1.0%; antibiotics disc method
[7] = system: Conditional pathogenic enterobacteria gram-negative aerobic bacilli; note: key: + sensitive strains; + moderately sensitive strains; − stable strains
Escherichia coli B-683 = assay: Sensitivity of strains: suppression of growth; conditions: Compound (1) 1.0%; antibiotics disc method
[8] = system: Neisseria meningitidis M-6231; assay: Sensitivity of strains: suppression of growth; conditions: Compound (1) 1.0%; antibiotics disc method
Alkaligenes sp. B-667 = assay: Sensitivity of strains: suppression of growth; conditions: Compound (1) 1.0%; antibiotics disc method
[9] = system: Salmonella typhimurium M-727; assay: Sensitivity of strains: suppression of growth; conditions: Compound (1) 1.0%; antibiotics disc method
[10] = system: Pseudomonas aeruginosa B-601; assay: Sensitivity of strains: suppression of growth; conditions: Compound (1) 1.0%; antibiotics disc method
[11] = system: Klebsiella pneumoniae M-248; assay: Sensitivity of strains: suppression of growth; conditions: Compound (1) 1.0%; antibiotics disc method
[12] = system: Staphylococcus aureus B-674; assay: Sensitivity of strains: suppression of growth; conditions: Compound (1) 1.0%; antibiotics disc method
Escherichia coli B-65 = assay: Sensitivity of strains: suppression of growth; conditions: Compound (1) 1.0%; antibiotics disc method
Alkaligenes sp. B-689 = assay: Sensitivity of strains: suppression of growth; conditions: Compound (1) 1.0%; antibiotics disc method
[13] = system: Staphylococcus aureus B-685; assay: Sensitivity of strains: suppression of growth; conditions: Compound (1) 1.0%; antibiotics disc method
Bacillus sp. B-575 = assay: Sensitivity of strains: suppression of growth; note: key: + sensitive strains; + moderately sensitive strains; − stable strains
Acinetobacter B-677 = assay: Sensitivity of strains: suppression of growth; conditions: Compound (1) 1.0%; antibiotics disc method
[14] = system: γ-hemolytic streptococcus B-672; assay: Sensitivity of strains: suppression of growth; conditions: Compound (1) 1.0%; antibiotics disc method
Acinetobacter B-681 = assay: Sensitivity of strains: suppression of growth; conditions: Compound (1) 1.0%; antibiotics disc method
[15] = system: Shigella flexneri M-2A6907; assay: Sensitivity of strains: suppression of growth; conditions: Compound (1) 1.0%; antibiotics disc method
[16] = system: Klebsiella pneumoniae M-A21; assay: Sensitivity of strains: suppression of growth; conditions: Compound (1) 1.0%; antibiotics disc method
[17] = system: Staphylococcus aureus M-209; assay: Sensitivity of strains: suppression of growth; conditions: Compound (1) 1.0%; antibiotics disc method
[18] = system: Neisseria meningitidis M-A72; assay: Sensitivity of strains: suppression of growth; conditions: Compound (1) 1.0%; antibiotics disc method
[19] = system: Citrobacter diversus B-678; assay: Sensitivity of strains: suppression of growth; conditions: Compound (1) 1.0%; antibiotics disc method
[20] = system: Staphylococcus epidermidis BK-30; assay: Sensitivity of strains: suppression of growth; conditions: Compound (1) 1.0%; antibiotics disc method
[21] = system: Corynebacterium diphtheriae B-670; assay: Sensitivity of strains: suppression of growth; conditions: Compound (1) 1.0%; antibiotics disc method
Shigella sonnei B-720 = assay: Sensitivity of strains: suppression of growth; conditions: Compound (1) 1.0%; antibiotics disc method
[22] = system: Salmonella paratyphi M-16469; assay: Sensitivity of strains: suppression of growth; conditions: Compound (1) 1.0%; antibiotics disc method

`O=C(N[C@H](CO)[C@H](O)c1ccc([N+](=O)[O-])cc1)C(Cl)Cl` [Antibiotic 7, levomicethin] was tested, and the “Suppression of Growth (+/−)” value [1] was “−”, the “Suppression of Growth (+/−)” value [2] was “−” and the “Suppression of Growth (+/−)” value (Acinetobacter B-676) was “−”. For the same compound, the “Suppression of Growth (+/−)” value [3] was “−”, the “Suppression of Growth (+/−)” value (Escherichia coli M-17) was “+” and the “Suppression of Growth (+/−)” value [4] was “−”. For the same compound, the “Suppression of Growth (+/−)” value [5] was “−”, the “Suppression of Growth (+/−)” value [6] was “−” and the “Suppression of Growth (+/−)” value [7] was “−”. The “Suppression of Growth (+/−)” value (Escherichia coli B-683) was “+”, the “Suppression of Growth (+/−)” value [8] was “−” and the “Suppression of Growth (+/−)” value (Alkaligenes sp. B-667) was “−”. The “Suppression of Growth (+/−)” value [9] was “−”, the “Suppression of Growth (+/−)” value [10] was “+” and the “Suppression of Growth (+/−)” value [11] was “−”. The “Suppression of Growth (+/−)” value [12] was “+”, the “Suppression of Growth (+/−)” value (Escherichia coli B-65) was “+” and the “Suppression of Growth (+/−)” value (Alkaligenes sp. B-689) was “+”. The “Suppression of Growth (+/−)” value [13] was “−”, the “Suppression of Growth (+/−)” value (Bacillus sp. B-575) was “+” and the “Suppression of Growth (+/−)” value (Acinetobacter B-677) was “−”. For the same compound, the “Suppression of Growth (+/−)” value [14] was “−”, the “Suppression of Growth (+/−)” value (Acinetobacter B-681) was “−” and the “Suppression of Growth (+/−)” value [15] was “+”. For the same compound, the “Suppression of Growth (+/−)” value [16] was “−”, the “Suppression of Growth (+/−)” value [17] was “−” and the “Suppression of Growth (+/−)” value [18] was “−”. For the same compound, the “Suppression of Growth (+/−)” value [19] was “−” and the “Suppression of Growth (+/−)” value [20] was “−”.

In the case of `CC[C@H]1OC(=O)[C@H](C)[C@@H](O[C@H]2C[C@@](C)(OC)[C@@H](O)[C@H](C)O2)[C@H](C)[C@@H](O[C@@H]2O[C@H](C)C[C@H](N(C)C)[C@H]2O)[C@](C)(O)C[C@@H](C)C(=O)[C@H](C)[C@@H](O)[C@]1(C)O` [Antibiotic 14, erythromycin], the “Suppression of Growth (+/−)” value [1] is reported as “−”, the “Suppression of Growth (+/−)” value [2] is reported as “−” and the “Suppression of Growth (+/−)” value (Acinetobacter B-676) is reported as “−”. For the same compound, the “Suppression of Growth (+/−)” value [3] was “−”, the “Suppression of Growth (+/−)” value [21] was “+” and the “Suppression of Growth (+/−)” value (Escherichia coli M-17) was “+”. For the same compound, the “Suppression of Growth (+/−)” value [4] was “−”, the “Suppression of Growth (+/−)” value [5] was “−” and the “Suppression of Growth (+/−)” value [6] was “−”. The “Suppression of Growth (+/−)” value [7] was “−”, the “Suppression of Growth (+/−)” value (Escherichia coli B-683) was “+” and the “Suppression of Growth (+/−)” value [8] was “−”. The “Suppression of Growth (+/−)” value (Alkaligenes sp. B-667) was “−”, the “Suppression of Growth (+/−)” value [9] was “−” and the “Suppression of Growth (+/−)” value [10] was “+”. For the same compound, the “Suppression of Growth (+/−)” value [11] was “−”, the “Suppression of Growth (+/−)” value (Shigella sonnei B-720) was “−” and the “Suppression of Growth (+/−)” value [12] was “+”. For the same compound, the “Suppression of Growth (+/−)” value [22] was “−”, the “Suppression of Growth (+/−)” value (Escherichia coli B-65) was “+” and the “Suppression of Growth (+/−)” value (Alkaligenes sp. B-689) was “−”. For the same compound, the “Suppression of Growth (+/−)” value [13] was “−”, the “Suppression of Growth (+/−)” value (Acinetobacter B-677) was “−” and the “Suppression of Growth (+/−)” value [14] was “−”. The “Suppression of Growth (+/−)” value (Acinetobacter B-681) was “−”, the “Suppression of Growth (+/−)” value [15] was “−” and the “Suppression of Growth (+/−)” value [16] was “−”. The “Suppression of Growth (+/−)” value [17] was “−”, the “Suppression of Growth (+/−)” value [18] was “−” and the “Suppression of Growth (+/−)” value [19] was “−”. For the same compound, the “Suppression of Growth (+/−)” value [20] was “−”.

In the case of gentamycin [Antibiotic 3], the “Suppression of Growth (+/−)” value [1] is reported as “−”, the “Suppression of Growth (+/−)” value [2] is reported as “−” and the “Suppression of Growth (+/−)” value (Acinetobacter B-676) is reported as “−”. The “Suppression of Growth (+/−)” value [3] was “−”, the “Suppression of Growth (+/−)” value [21] was “+” and the “Suppression of Growth (+/−)” value (Escherichia coli M-17) was “+”. For the same compound, the “Suppression of Growth (+/−)” value [4] was “+”, the “Suppression of Growth (+/−)” value [5] was “−” and the “Suppression of Growth (+/−)” value [6] was “+”. For the same compound, the “Suppression of Growth (+/−)” value [7] was “−”, the “Suppression of Growth (+/−)” value (Escherichia coli B-683) was “+” and the “Suppression of Growth (+/−)” value [8] was “−”. For the same compound, the “Suppression of Growth (+/−)” value (Alkaligenes sp. B-667) was “−”, the “Suppression of Growth (+/−)” value [9] was “−” and the “Suppression of Growth (+/−)” value [10] was “+”. The “Suppression of Growth (+/−)” value [11] was “−”, the “Suppression of Growth (+/−)” value (Shigella sonnei B-720) was “−” and the “Suppression of Growth (+/−)” value [12] was “+”. The “Suppression of Growth (+/−)” value [22] was “−”, the “Suppression of Growth (+/−)” value (Escherichia coli B-65) was “+” and the “Suppression of Growth (+/−)” value (Alkaligenes sp. B-689) was “+”. The “Suppression of Growth (+/−)” value [13] was “+”, the “Suppression of Growth (+/−)” value (Acinetobacter B-677) was “−” and the “Suppression of Growth (+/−)” value [14] was “−”. For the same compound, the “Suppression of Growth (+/−)” value (Acinetobacter B-681) was “−”, the “Suppression of Growth (+/−)” value [15] was “+” and the “Suppression of Growth (+/−)” value [16] was “−”. For the same compound, the “Suppression of Growth (+/−)” value [17] was “+”, the “Suppression of Growth (+/−)” value [18] was “−” and the “Suppression of Growth (+/−)” value [19] was “+”. For the same compound, the “Suppression of Growth (+/−)” value [20] was “−”.

For ristomycin [Antibiotic 11], the “Suppression of Growth (+/−)” value [1] was “−”, the “Suppression of Growth (+/−)” value [2] was “−” and the “Suppression of Growth (+/−)” value (Acinetobacter B-676) was “−”. The “Suppression of Growth (+/−)” value [3] was “+”, the “Suppression of Growth (+/−)” value [21] was “+” and the “Suppression of Growth (+/−)” value (Escherichia coli M-17) was “−”. The “Suppression of Growth (+/−)” value [4] was “+”, the “Suppression of Growth (+/−)” value [5] was “−” and the “Suppression of Growth (+/−)” value [6] was “+”. For the same compound, the “Suppression of Growth (+/−)” value (Escherichia coli B-683) was “−”, the “Suppression of Growth (+/−)” value [8] was “−” and the “Suppression of Growth (+/−)” value (Alkaligenes sp. B-667) was “−”. For the same compound, the “Suppression of Growth (+/−)” value [9] was “−”, the “Suppression of Growth (+/−)” value [10] was “−” and the “Suppression of Growth (+/−)” value [11] was “−”. The “Suppression of Growth (+/−)” value (Shigella sonnei B-720) was “−”, the “Suppression of Growth (+/−)” value [12] was “−” and the “Suppression of Growth (+/−)” value [22] was “−”. The “Suppression of Growth (+/−)” value (Escherichia coli B-65) was “+”, the “Suppression of Growth (+/−)” value (Alkaligenes sp. B-689) was “−” and the “Suppression of Growth (+/−)” value [13] was “+”. The “Suppression of Growth (+/−)” value [14] was “+”, the “Suppression of Growth (+/−)” value (Acinetobacter B-681) was “−” and the “Suppression of Growth (+/−)” value [15] was “−”. The “Suppression of Growth (+/−)” value [16] was “−”, the “Suppression of Growth (+/−)” value [17] was “+” and the “Suppression of Growth (+/−)” value [18] was “−”. The “Suppression of Growth (+/−)” value [19] was “−” and the “Suppression of Growth (+/−)” value [20] was “+”.
